We go through 23 molecules from patent US20110268842A1 (SIGMA ALIMENTOS, S.A. DE C.V., priority 2008, published 2011).

One assay deals with Bifidobacterium animalis PTA-9175. Kind of assay: Determination of resistance patterns (Kirby-Bauer, inhibition halos). Format: cell-based. Conditions: sensidiscs on Mueller-Hinton agar; diameter 0 = resistant. As for the experimental part:
Method: To determine the phenotype of resistance to antibiotics the Kirby-Bauer method was used. From a young culture of 18 to 24 hours several colonies were taken with a sterile swab and inoculated into a test tube with a sterile, isotonic saline solution. The inoculum was visually adjusted to a turbidity of 0.5 on the McFarland scale. Within 15 minutes the inoculum was adjusted, a sterile swab was introduced into the suspension and when removing it the excess liquid was eliminated. Agar Mueller-Hinton plates were inoculated, leaving no free zone, sliding the swab across the surface of the agar 3 times, rotating the plate 60° each time and finally passing it over the periphery of the agar to achieve a uniform seed.
The plates were left to dry for 3 to 5 min and the sensidiscs of the following antibiotics were placed: norfloxacin, cephalothin, azithromycin, tobramycin, ampicillin/sulbactam, erythromycin cefatoxim, nalidixic acid, ceftazidime, aztreonam, vancomycin, cefuroxime, rifampicyn, nitrofurantoin, oxacylin, nefilmicin amikacin, kanamycin ticarcillin, clindamycin, ampicillin.
All strains with an inhibition diameter of 0 are resistant to the tested antibiotic.
On to `CC(C)(O/N=C(\C(=O)N[C@@H]1C(=O)N2C(C(=O)[O-])=C(C[n+]3ccccc3)CS[C@H]12)c1csc(N)n1)C(=O)O` [Ceftazidime], for which the “Inhibition halo (mm)” value was 38 mm.
With `CC[C@H]1OC(=O)[C@H](C)[C@@H](O[C@H]2C[C@@](C)(OC)[C@@H](O)[C@H](C)O2)[C@H](C)[C@@H](O[C@@H]2O[C@H](C)C[C@H](N(C)C)[C@H]2O)[C@](C)(O)C[C@@H](C)CN(C)[C@H](C)[C@@H](O)[C@]1(C)O` [Azithromycin], the “Inhibition halo (mm)” value worked out at 30 mm.
Consider `CCn1cc(C(=O)O)c(=O)c2ccc(C)nc21` [Nalidixic acid], for which the “Inhibition halo (mm)” value is 0 mm.
`Cc1onc(-c2ccccc2)c1C(=O)N[C@@H]1C(=O)N2[C@@H]1SC(C)(C)[C@@H]2C(=O)O` [Oxacylin]: the “Inhibition halo (mm)” value is on record as 0 mm.
Still for that read-out and setting: to `CC[C@H]1OC(=O)[C@H](C)[C@@H](O[C@H]2C[C@@](C)(OC)[C@@H](O)[C@H](C)O2)[C@H](C)[C@@H](O[C@@H]2O[C@H](C)C[C@H](N(C)C)[C@H]2O)[C@](C)(O)C[C@@H](C)C(=O)[C@H](C)[C@@H](O)[C@]1(C)O` [Erythromycin] belongs 40 mm.
Still for that read-out and setting: in the case of Rifampicyn it was 2 mm; in that of `CC1(C)S[C@@H]2[C@H](NC(=O)[C@H](C(=O)O)c3ccsc3)C(=O)N2[C@H]1C(=O)O` [Ticarcillin], 40 mm; in that of `NC[C@H]1O[C@H](O[C@H]2[C@H](O)[C@@H](O[C@H]3O[C@H](CO)[C@@H](O)[C@H](N)[C@H]3O)[C@H](N)C[C@@H]2N)[C@H](O)[C@@H](O)[C@@H]1O` [Kanamycin], 0 mm.
Still for that read-out and setting: in the case of Nefilmicin it was 0 mm.
`CO/N=C(\C(=O)N[C@@H]1C(=O)N2C(C(=O)O)=C(COC(C)=O)CS[C@H]12)c1csc(N)n1` [Cefatoxim]: the “Inhibition halo (mm)” value is on record as 40 mm.
As to `CN[C@H](CC(C)C)C(=O)N[C@H]1C(=O)N[C@@H](CC(N)=O)C(=O)N[C@H]2C(=O)N[C@H]3C(=O)N[C@H](C(=O)N[C@H](C(=O)O)c4cc(O)cc(O)c4-c4cc3ccc4O)[C@H](O)c3ccc(c(Cl)c3)Oc3cc2cc(c3O[C@@H]2O[C@H](CO)[C@@H](O)[C@H](O)[C@H]2O[C@H]2C[C@](C)(N)[C@H](O)[C@H](C)O2)Oc2ccc(cc2Cl)[C@H]1O` [Vancomycin], the “Inhibition halo (mm)” value stood at 27 mm.
For `CO/N=C(\C(=O)N[C@@H]1C(=O)N2C(C(=O)O)=C(COC(N)=O)CS[C@H]12)c1ccco1` [Cefuroxime], the “Inhibition halo (mm)” value is given as 25 mm.
On the same count and under the same terms, to `CCn1cc(C(=O)O)c(=O)c2cc(F)c(N3CCNCC3)cc21` [Norfloxacin] belongs 0 mm; to `CC1(C)S[C@@H]2[C@H](NC(=O)[C@H](N)c3ccccc3)C(=O)N2[C@H]1C(=O)O` [Ampicillin], 35 mm; to `CC(=O)OCC1=C(C(=O)O)N2C(=O)[C@@H](NC(=O)Cc3cccs3)[C@H]2SC1` [Cephalothin], 24 mm.
With `C[C@H]1[C@H](NC(=O)/C(=N\OC(C)(C)C(=O)O)c2csc(N)n2)C(=O)N1S(=O)(=O)O` [Aztreonam], the “Inhibition halo (mm)” value amounted to 0 mm.
Regarding `NC[C@H]1O[C@H](O[C@H]2[C@H](O)[C@@H](O[C@H]3O[C@H](CO)[C@@H](O)[C@H](N)[C@H]3O)[C@H](N)C[C@@H]2N)[C@H](N)C[C@@H]1O` [Tobramycin], the “Inhibition halo (mm)” value turned out to be 0 mm.
The same measure, in the same setting: in the case of `NCC[C@H](O)C(=O)N[C@@H]1C[C@H](N)[C@@H](O[C@H]2O[C@H](CN)[C@@H](O)[C@H](O)[C@H]2O)[C@H](O)[C@H]1O[C@H]1O[C@H](CO)[C@@H](O)[C@H](N)[C@H]1O` [Amikacin] it was 0 mm; in that of `CC1COc2c(N3CCN(C)CC3)c(F)cc3c(=O)c(C(=O)O)cn1c23` (stereo not drawn) [Ofloxacin], 12 mm.
Still for that read-out and setting: to Ampicillin/Sulbactam belongs 30 mm.
Consider `O=C1CN(/N=C/c2ccc([N+](=O)[O-])o2)C(=O)N1` [Nitrofurantoin], for which the “Inhibition halo (mm)” value is 40 mm.
With `CCC[C@@H]1C[C@@H](C(=O)N[C@@H]([C@H]2O[C@H](SC)[C@H](O)[C@@H](O)[C@H]2O)[C@H](C)Cl)N(C)C1` [Clindamycin], the “Inhibition halo (mm)” value amounted to 43 mm.

The next assay has as its system homocysteine concentration in the blood.
Test: not given
The settings on record: 400 μg/day; cited from earlier work.
For `Nc1nc2ncc(CNc3ccc(C(=O)N[C@@H](CCC(=O)O)C(=O)O)cc3)nc2c(=O)[nH]1` [folic acid], the “effect on homocysteine concentration in the blood” value is listed as “decrease the levels of homocysteine concentration in the blood”.

System in the next assay: not given
Test: not given
The settings on record: supplements before conception; cited from earlier work.
Turning to `Nc1nc2ncc(CNc3ccc(C(=O)N[C@@H](CCC(=O)O)C(=O)O)cc3)nc2c(=O)[nH]1` [folic acid], the “reduction of the risks of neurological defects in the future child” value was 50%.
